We go through 6 compounds from PubChem BioAssay AID180 (DTP/NCI, 2004).

Values joined by “and” are separate entries in the source; they are usually repeats but may differ in a detail not shown here. Equal entries are not always repeated.

This test concerns BDF1 mice, Adenocarcinoma 755 s.c., tumor weight T/C. The experiment in a line: NCI In Vivo Anticancer Drug Screen. Data for tumor model Adenocarcinoma 755 (subcutaneous) in B6D2F1 (BDF1) mice. The conditions noted are these: endpoint: mean tumor weight, higher = larger tumour. Put shortly: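 Tumor-bearing mice receive test compound while controls get vehicle alone. Antitumor effect is scored from survival or tumor dimensions as a T/C quotient.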

As to `COB1OB(OC)OB(OC)O1`, the T/C runs as follows: (dose: 18.75 mg/kg/injection, schedule: Q01DX011 (ip), vehicle: water) 78 % of control; (dose: 250.0 mg/kg/injection, schedule: Q#A X022 (oral), vehicle: water) 64 % of control; (dose: 335.0 mg/kg/injection, schedule: Q01DX011 (ip), vehicle: other) 51 % of control; (dose: 375.0 mg/kg/injection, schedule: Q01DX011 (im), vehicle: other) 59 % of control; (dose: 375.0 mg/kg/injection, schedule: Q01DX011 (ip), vehicle: other) 75 % of control; (dose: 375.0 mg/kg/injection, schedule: Q01DX011 (ip), vehicle: water) 61 % of control. For the same compound, the T/C reads like this: (dose: 375.0 mg/kg/injection, schedule: Q01DX011 (sc), vehicle: other) 81 % of control; (dose: 450.0 mg/kg/injection, schedule: Q#A X022 (sc), vehicle: other) 40 % of control; (dose: 500.0 mg/kg/injection, schedule: Q01DX011 (ip), vehicle: other) 41 % of control and 51 % of control; (dose: 500.0 mg/kg/injection, schedule: Q01DX011 (oral), vehicle: other) 97 % of control and 75 % of control; (dose: 500.0 mg/kg/injection, schedule: Q#A X022 (oral), vehicle: water) 43 % of control; (dose: 600.0 mg/kg/injection, schedule: Q01DX011 (oral), vehicle: other) 53 % of control. Further, the T/C runs as follows: (dose: 600.0 mg/kg/injection, schedule: Q## X012 (oral), vehicle: other) 109 % of control; (dose: 600.0 mg/kg/injection, schedule: Q#A X022 (im), vehicle: other) 28 % of control; (dose: 600.0 mg/kg/injection, schedule: Q#A X022 (sc), vehicle: other) 74 % of control; (dose: 750.0 mg/kg/injection, schedule: Q01DX011 (im), vehicle: other) 65 % of control and 74 % of control; (dose: 750.0 mg/kg/injection, schedule: Q01DX011 (ip), vehicle: other) 43 % of control and 47 % of control and 55 % of control; (dose: 750.0 mg/kg/injection, schedule: Q01DX011 (ip), vehicle: water) 20 % of control. Also, the T/C is, setting by setting: (dose: 750.0 mg/kg/injection, schedule: Q01DX011 (oral), vehicle: other) 71 % of control; (dose: 750.0 mg/kg/injection, schedule: Q02DX006 (ip), vehicle: other) 71 % of control; (dose: 750.0 mg/kg/injection, schedule: Q## X006 (ip), vehicle: other) 78 % of control; (dose: 750.0 mg/kg/injection, schedule: Q#A X022 (oral), vehicle: water) 7 % of control and 21 % of control; (dose: 750.0 mg/kg/injection, schedule: Q#A X022 (sc), vehicle: other) 43 % of control; (dose: 800.0 mg/kg/injection, schedule: Q01DX011 (im), vehicle: other) 77 % of control. Besides, the T/C runs as follows: (dose: 800.0 mg/kg/injection, schedule: Q#A X022 (im), vehicle: other) 50 % of control; (dose: 1000.0 mg/kg/injection, schedule: Q01DX011 (im), vehicle: other) 48 % of control and 56 % of control; (dose: 1000.0 mg/kg/injection, schedule: Q01DX011 (ip), vehicle: other) 14 % of control and 37 % of control; (dose: 1000.0 mg/kg/injection, schedule: Q01DX011 (oral), vehicle: saline) 47 % of control; (dose: 1000.0 mg/kg/injection, schedule: Q01DX011 (oral), vehicle: water) 37 % of control; (dose: 1000.0 mg/kg/injection, schedule: Q02DX006 (ip), vehicle: other) 45 % of control. Further, the T/C is 63 % of control (dose: 1000.0 mg/kg/injection, schedule: Q## X006 (ip), vehicle: other); 84 % of control (dose: 1000.0 mg/kg/injection, schedule: Q## X012 (oral), vehicle: other); 8 % of control (dose: 1000.0 mg/kg/injection, schedule: Q#A X022 (oral), vehicle: water); 36 % of control (dose: 1000.09 mg/kg/injection, schedule: Q01DX011 (oral), vehicle: other); 43 % of control (dose: 1125.0 mg/kg/injection, schedule: Q01DX011 (ip), vehicle: other); 22 % of control (dose: 1200.0 mg/kg/injection, schedule: Q01DX011 (im), vehicle: other). Also, the T/C by setting is: (dose: 1250.0 mg/kg/injection, schedule: Q01DX011 (sc), vehicle: other) 38 % of control; (dose: 1250.0 mg/kg/injection, schedule: Q#A X022 (oral), vehicle: water) 2 % of control and 10 % of control; (dose: 1500.0 mg/kg/injection, schedule: Q01DX011 (im), vehicle: other) 16 % of control and 30 % of control; (dose: 1500.0 mg/kg/injection, schedule: Q01DX011 (ip), vehicle: water) 6 % of control; (dose: 1500.0 mg/kg/injection, schedule: Q01DX011 (oral), vehicle: saline) 16 % of control; (dose: 1500.0 mg/kg/injection, schedule: Q01DX011 (oral), vehicle: water) 16 % of control. Moreover, the T/C is 22 % of control (dose: 1500.0 mg/kg/injection, schedule: Q01DX011 (sc), vehicle: other); 37 % of control (dose: 1500.0 mg/kg/injection, schedule: Q02DX006 (ip), vehicle: other); 58 % of control (dose: 1500.0 mg/kg/injection, schedule: Q## X006 (ip), vehicle: other); 51 % of control (dose: 1500.0 mg/kg/injection, schedule: Q## X012 (oral), vehicle: other); 14 % of control (dose: 2000.0 mg/kg/injection, schedule: Q01DX011 (oral), vehicle: saline); 7 % of control (dose: 2000.0 mg/kg/injection, schedule: Q01DX011 (oral), vehicle: water). Further, the T/C reads like this: (dose: 2000.0 mg/kg/injection, schedule: Q## X012 (oral), vehicle: other) 15 % of control; (dose: 2500.0 mg/kg/injection, schedule: Q01DX011 (oral), vehicle: saline) 4 % of control; (dose: 2500.0 mg/kg/injection, schedule: Q## X012 (oral), vehicle: other) 22 % of control.

For `CC(C)CNS(=O)(=O)c1ncnc2nc[nH]c12`, the T/C was 62 % of control (dose: 6.0 mg/kg/injection, schedule: Q01DX011 (ip), vehicle: carboxymethylcellulose (CMC)); 81 % of control (dose: 6.0 mg/kg/injection, schedule: Q01DX011 (ip), vehicle: other); 96 % of control (dose: 12.0 mg/kg/injection, schedule: Q01DX011 (ip), vehicle: other); 24 % of control (dose: 12.5 mg/kg/injection, schedule: Q01DX011 (ip), vehicle: carboxymethylcellulose (CMC)); 12 % of control (dose: 19.0 mg/kg/injection, schedule: Q01DX011 (ip), vehicle: carboxymethylcellulose (CMC)); 8 % of control (dose: 25.0 mg/kg/injection, schedule: Q01DX011 (ip), vehicle: carboxymethylcellulose (CMC)). The T/C runs as follows: (dose: 25.0 mg/kg/injection, schedule: Q01DX011 (ip), vehicle: other) 34 % of control; (dose: 50.0 mg/kg/injection, schedule: Q01DX011 (ip), vehicle: other) 6 % of control; (dose: 75.0 mg/kg/injection, schedule: Q01DX011 (ip), vehicle: carboxymethylcellulose (CMC)) 2 % of control; (dose: 100.0 mg/kg/injection, schedule: Q01DX011 (ip), vehicle: other) 10 % of control.

For the compound `CCN(CC)CCOc1ccc(/C=N/Nc2nc3c(c(=O)n(C)c(=O)n3C)n2C)cc1`, the T/C runs as follows: (dose: 30.0 mg/kg/injection, schedule: Q01DX011 (ip), vehicle: carboxymethylcellulose (CMC)) 94 % of control; (dose: 60.0 mg/kg/injection, schedule: Q01DX011 (ip), vehicle: carboxymethylcellulose (CMC)) 113 % of control; (dose: 240.0 mg/kg/injection, schedule: Q01DX011 (ip), vehicle: carboxymethylcellulose (CMC)) 102 % of control and 124 % of control.

Regarding `CC(C)CSc1nc(N)nc2c1ncn2CC(C)C`, the T/C (dose: 25.0 mg/kg/injection, schedule: Q01DX011 (ip), vehicle: methylcellulose (MC)) was 21 % of control; the T/C (dose: 50.0 mg/kg/injection, schedule: Q01DX011 (ip), vehicle: methylcellulose (MC)) is 12 % of control; the T/C (dose: 100.0 mg/kg/injection, schedule: Q01DX011 (ip), vehicle: methylcellulose (MC)) was 1 % of control.

On to `c1ccn(-c2nc(-n3cccc3)nc(-n3cccc3)n2)c1`, for which the T/C reads like this: (dose: 31.25 mg/kg/injection, schedule: Q01DX011 (ip), vehicle: carboxymethylcellulose (CMC)) 72 % of control; (dose: 62.5 mg/kg/injection, schedule: Q01DX011 (ip), vehicle: carboxymethylcellulose (CMC)) 86 % of control; (dose: 125.0 mg/kg/injection, schedule: Q01DX011 (ip), vehicle: carboxymethylcellulose (CMC)) 73 % of control; (dose: 250.0 mg/kg/injection, schedule: Q01DX011 (ip), vehicle: carboxymethylcellulose (CMC)) 17 % of control and 38 % of control.

Consider `CCCCN(C)N=Nc1ccc(C(=O)OCC)cc1`, for which the T/C is, setting by setting: (dose: 125.0 mg/kg/injection, schedule: Q01DX011 (ip), vehicle: other) 37 % of control; (dose: 200.0 mg/kg/injection, schedule: Q01DX011 (ip), vehicle: other) 31 % of control.
